In patent US20260263482A1, “COMPOSITION AND METHOD FOR INDUCING LUTEOLYSIS” (WELFARE CONCEPTS LIMITED, priority 2023, published 2026):
Read-outs that look alike come from different tables or passages of the source.

Assays:
[1] = Titration of cloprostenol sodium with calcium or zinc salts, cloprostenol in supernatant by HPLC; format: physicochemical
Method: Water-insoluble salts of cloprostenol were investigated as a means of prolonging release of cloprostenol after administration. Solutions of cloprostenol sodium were titrated with calcium chloride, zinc chloride or zinc acetate solutions. The resulting mixtures were vortexed, left to stand overnight then observed for precipitation possibly due to formation of an insoluble salt. Samples with a visible precipitate were centrifuged at 15000 rpm for 5 min and the supernatant was then removed for analysis of cloprostenol by validated HPLC.

[2] = physchem; format: physicochemical; conditions: for solubility: water, water solubility
Method: Water-in-oil (w/o) emulsions of cloprostenol sodium were investigated for use as sustained release compositions of cloprostenol. […] In aqueous solution cloprostenol sodium micellises at concentrations around 5-10 mg/ml. The minimum quantity of water to dissolve a 3 mg dose of cloprostenol (as the sodium salt) is around 0.1 ml. Accordingly, a target volume of 2 ml of water-in-oil emulsion requires a minimum proportion of around 5% water to incorporate a 3 mg dose of cloprostenol.

[3] = literature; cited from earlier work
[4] = Chemical stability of cloprostenol in ethanol and Transcutol; format: physicochemical; conditions: 40° C., 4 days, HPLC
Method: The chemical stability of cloprostenol was tested in ethanol and Transcutol. A cloprostenol solution (1 mg/ml) was prepared in each solvent and stored in at 40° C. for 4 days. The solutions were then removed and injected into HPLC for cloprostenol quantification and the chromatogram inspected for the formation of new (degradation) peaks. Cloprostenol in solution in ethanol and Transcutol at 40° C. was stable for the 4 days tested. […] There were no degradation peaks in the chromatograms.

[5] = Authors' study / animal trial: half-life from terminal slope of plasma concentration versus time profile; format: in vivo; conditions: cattle, intramuscular
Method: Literature has reported a half-life for cloprostenol of around 90 minutes, with a maximum concentration reached at around 10 to 20 minutes after administration.
The inventors have also used various models to describe the absorption kinetics of cloprostenol. The most recent model was to describe the release from SAIB formulations as occurring as a burst of some percentage of the dose followed by a rate of release proportional to the square root of time. In an animal trial, the inventors calculated the terminal slope of the plasma concentration versus time profile. If absorption is very rapid—ie. as from standard cloprostenol injection, Ovuprost™, this terminal slope is related to the elimination half-life of the cloprostenol. The inventors found this half-life to be 1 hour. The literature reports the elimination half-life of cloprostenol to be 1.5-3 hours. If absorption is slow, the terminal slope relates to the absorption rate of the cloprostenol from the injection.
In cattle, the conventional intramuscular injected dose of natural PGF2α is 25 mg whereas the intramuscular injected dose of cloprostenol in 0.5 mg. PGF2α has a half-life of about 8-10 minutes whereas the cloprostenol half-life is from around 1 hour as determined by the authors' study and reported elsewhere as 1.5-3 hours.

For `O=C([O-])CCCC=CCC1C(O)CC(O)C1C=CC(O)COc1cccc(Cl)c1.O=C([O-])CCCC=CCC1C(O)CC(O)C1C=CC(O)COc1cccc(Cl)c1.[Ca+2]` (stereo not drawn) [calcium cloprostenol], the “solubility of the calcium salt” value ([1]; titration with calcium chloride, mixtures remained apparently clear) was “good solubility”.
For `O=C(O)CCC/C=C\CC1C(O)CC(O)C1/C=C/C(O)COc1cccc(Cl)c1` (stereo not drawn) [cloprostenol sodium], the “concentration at which it micellises in aqueous solution” value [2] was 5000 to 10000 µg/mL, the solubility [2] was over 10 mg/mL and the solubility ([2]; estimated) was about 35 mg/mL.
In the case of `O=C(O)CCC/C=C\CC1C(O)CC(O)C1/C=C/C(O)COc1cccc(Cl)c1` (stereo not drawn) [cloprostenol], the “elimination half-life of cloprostenol” value [3] is listed as 1.5 to 3 h, the half-life for cloprostenol [3] is listed as “around 90 minutes” and the measured drug content ([4]; 1 mg/ml in Transcutol) is listed as 102%. The measured drug content ([4]; 1 mg/ml in ethanol) was 101%, the “cloprostenol still contained in supernatant at best yield of precipitate” value ([1]; zinc acetate) was “around 50%” and the “cloprostenol still contained in supernatant at best yield of precipitate” value ([1]; zinc chloride as counter cation) was “around 74%”. The half-life ([5]; Holstein, 0.5 mg, very rapid absorption, standard cloprostenol injection, read-out: half-life (terminal slope, elimination) (converted)) was about 1 h and the half-life ([5]; 0.5 mg cloprostenol as the sodium salt in a fast-release aqueous composition, read-out: estimated half-life of cloprostenol in plasma) was 0.25 to 1 h.
